Measurements from US7820625B2, “UV-induced dermatitis inhibitor and atopic dermatitis inhibitor” (National Institute of Advanced Industrial Science and …, priority 2005, dated 2010).
Where a SMILES comes first, the peptide text is derived from it. Where no end group is shown, it is not given here.

Legend:
[1] = test system: BALB/c mice (DNFB-induced dermatitis, auricle skin); test: DNFB-induced dermatitis in mouse earlobes; amount of water evaporation (Tewameter TM300) to evaluate the barrier function of keratin; assay type: in vivo
Experimental: A 1 mg portion of glycylprolylisoleucylglycylserine (SEQ ID NO: 6) (hereinafter, also referred to as “GPIGS”) (manufactured by AMERICAN PEPTIDE COMPANY, Inc., lot. CC-09-119) was weighed. This GPIGS [SEQ ID NO: 6] was dissolved by the addition of 300 μl of Otsuka distilled water for injection (manufactured by Otsuka Pharmaceutical Co., Ltd., cat. 322134). Then, this solution was mixed with 200 μl of propylene glycol (manufactured by Wako Pure Chemical Industries, Ltd., cat. 161-05006) and 500 μl of ethanol (manufactured by Wako Pure Chemical Industries, Ltd., cat. 057-00456) to prepare 1 mg/ml GPIGS [SEQ ID NO: 6] solution (1).
Seven-week-old mice (produced by Japan SLC. Inc, BALB/c line) were raised for 1 week and acclimatized.
A 10 μl portion (14.5 mg) of […] (manufactured by NACALAI TESQUE, INC., cat. 135-12) (DNFB) was added to 9.7 ml of (acetone:olive oil=3:1) solution to prepare 1.5 mg/ml DNFB solution.
A 25 μl portion of 1.5 mg/ml DNFB solution was applied five times (once a week) to each of the front and back sides of the left and right earlobes of the BALB/c mice (8-week-old).
From one day after the 4th DNFB solution application, 25 μl of the drug solution was applied once a day to each of the front and back sides of the left and right earlobes (in the 5th DNFB solution application, the GPIGS [SEQ ID NO: 6] solution (1) was applied 1 hour before DNFB application). Forty-eight hours after the 5th DNFB solution application, an amount of water evaporation in the auricle surfaces was measured with Tewameter TM300 (manufactured by Courage+Khazaka electronic GmbH.) to evaluate the barrier function of keratin (1-3) (the present invention).
The barrier function of keratin was also evaluated on (1-1) wherein the same procedures aforementioned were performed except that a (acetone:olive oil=3:1) solution was applied instead of the DNFB solution and (1-2) (Comparative Example) wherein the same procedures aforementioned were performed except that a solution containing the GPIGS [SEQ ID NO: 6] solution (1) except for GPIGS [SEQ ID NO: 6] was used.
All the experiments were conducted using five mice.
The data in FIG. 1 are indicated with mean±standard deviation (mean±S.E.). Statistical analysis was conducted by Student's t-test (Stat View J-4.02, Abacus Concepts Inc.). A significant level less than 5% (p<0.05) means that a significant difference is present.

[2] = test system: Hos:HR-1 mice (UVB-irradiated back skin); test: UVB-irradiated mouse back skin; amount of water evaporation (Tewameter TM300) to evaluate the barrier function of keratin; assay type: in vivo; conditions: for rate of increase in the total amount of water evaporation from the 1st day to the 10th day after UVB irradiation: 1 mg/ml ointment, increase of Comparative Example (5-2) over non-irradiated (5-1) defined as 100%
Experimental: A GPIGS [SEQ ID NO: 6] solution (1) was prepared in the same way as in Example 1.
Mice used were 10-week-old mice (produced by Japan SLC. Inc, Hos:HR-1 line) raised for 1 week or longer in the breeding room of National Institute of Advanced Industrial Science and Technology and acclimatized.
The backs of the mice fixed under pentobarbital anesthesia were irradiated with 150 mJ/cm^2 UVB for 5 days (once a day) to cause skin damage. A 100 μl portion of the drug solution was applied once a day immediately after UVB irradiation to each of the skin surfaces of the backs. An amount of water evaporation in the skin surfaces of the backs was measured with Tewameter TM300 (manufactured by Courage+Khazaka electronic GmbH.) to evaluate the barrier function of keratin.
All the experiments were conducted using four mice.
The data in FIG. 2 are indicated with mean±standard deviation (mean±S.E.). Statistical analysis was conducted by Student's t-test (Stat View J-4.02, Abacus Concepts Inc.). A significant level less than 5% (p<0.05) means that a significant difference is present. In this context, the open triangle denotes (2-1) without UVB irradiation; x denotes (2-2) (Comparative Example) using a solution containing the GPIGS [SEQ ID NO: 6] solution (1) except for GPIGS [SEQ ID NO: 6]; and the solid diamond denotes Example of the present application (2-3).

[3] = 1 mg/ml solution (water/propylene glycol/ethanol), 25 μl once a day on earlobes, 48 h after 5th DNFB application, vehicle control 13.11 (GPIGS experiment), 9.29 (IGS experiment)

Molecule	amount of water evaporation [1, 3] [g/m^2/hr]	rate of increase in the total amount of water evaporation from the 1st day to the 10th day after UVB irradiation [2] [%]	amount of water evaporation ([1]; 1 mg/ml ointment (3-3), base ointment control 8.42, no DNFB 1.83) [g/m^2/hr]	amount of water evaporation ([1]; 3 mg/ml ointment (3-4), base ointment control 8.42, no DNFB 1.83) [g/m^2/hr]	barrier function of keratin compared with Example 1 ([1]; 3 mg/ml solution, otherwise as Example 1)	dermatitis of each mouse ([1]; ointment (10 mg GPIGS with Hiviswako 104, propylene glycol, diisopropanolamine, gentamycin, water), mice treated as in Examples 1 and 2)	amount of water evaporation compared with Comparative Example (2-2) ([2]; 1 mg/ml solution, 100 μl once a day after 150 mJ/cm^2 UVB, following the fourth day after UVB irradiation)
CC[C@H](C)[C@H](N)C(=O)NCC(=O)N[C@@H](CO)C(=O)O [IGS, isoleucylglycylserine] (H-Ile-Gly-Ser-OH)	5.57	55.4	–	–	–	–	–
GPIGS [GPIGS, glycylprolylisoleucylglycylserine]	11.30	82.1	5.23	3.89	more excellent barrier function of keratin	improvement	significantly lower
